This note sets out measurements from article PMC7326984, “Synthesis, in vitro urease inhibitory potential and molecular docking study of benzofuran-based-thiazoldinone analogues” (Scientific Reports, 2020).

The target of this test is urease enzyme (Canavalia ensiformis, UniProt P07374). It is filed as biochemical. As to conditions: read-out: IC50 values (urease inhibition); indophenol method, pH 6.8, 30 °C, 15 min incubation, triplicate; thiourea as standard. The method, then: 25 µL of enzyme and 55 µL of buffer was added to 100 mM urea that were incubated with test scaffolds 5 µL (0.5 mM concentration) for 15 min at 30 °C in 96-well plates. Urea concentrations were changed from 2–24 mM to study kinetics. As described by Weatherburn the urease potential was assessed by measuring the ammonia production with using indophenol method. Concisely, 70 µL of alkali reagent (0.1% active chloride NaOCl and 0.5 w/v NaOH) and 45 µL of reagent phenol (0.005% w/v sodium nitroprusside and 1% w/v phenol) were added to each and every well plate. Using microplate reader (Molecular Device, USA) the increase in absorbance at 630 nm was measured after 50 min. Using 200 µL as final volume the reading was performed as triplicate. With help of SoftMaxPro software (Molecular Device, USA) the results (per min absorbance change) were calculated. At pH 6.8 the entire assay was performed. With the help of 100 − (ODtest well/ODcontrol) × 100 the percentage inhibition was calculated.
Sequence of urease enzyme (P07374 whole entry, looked up): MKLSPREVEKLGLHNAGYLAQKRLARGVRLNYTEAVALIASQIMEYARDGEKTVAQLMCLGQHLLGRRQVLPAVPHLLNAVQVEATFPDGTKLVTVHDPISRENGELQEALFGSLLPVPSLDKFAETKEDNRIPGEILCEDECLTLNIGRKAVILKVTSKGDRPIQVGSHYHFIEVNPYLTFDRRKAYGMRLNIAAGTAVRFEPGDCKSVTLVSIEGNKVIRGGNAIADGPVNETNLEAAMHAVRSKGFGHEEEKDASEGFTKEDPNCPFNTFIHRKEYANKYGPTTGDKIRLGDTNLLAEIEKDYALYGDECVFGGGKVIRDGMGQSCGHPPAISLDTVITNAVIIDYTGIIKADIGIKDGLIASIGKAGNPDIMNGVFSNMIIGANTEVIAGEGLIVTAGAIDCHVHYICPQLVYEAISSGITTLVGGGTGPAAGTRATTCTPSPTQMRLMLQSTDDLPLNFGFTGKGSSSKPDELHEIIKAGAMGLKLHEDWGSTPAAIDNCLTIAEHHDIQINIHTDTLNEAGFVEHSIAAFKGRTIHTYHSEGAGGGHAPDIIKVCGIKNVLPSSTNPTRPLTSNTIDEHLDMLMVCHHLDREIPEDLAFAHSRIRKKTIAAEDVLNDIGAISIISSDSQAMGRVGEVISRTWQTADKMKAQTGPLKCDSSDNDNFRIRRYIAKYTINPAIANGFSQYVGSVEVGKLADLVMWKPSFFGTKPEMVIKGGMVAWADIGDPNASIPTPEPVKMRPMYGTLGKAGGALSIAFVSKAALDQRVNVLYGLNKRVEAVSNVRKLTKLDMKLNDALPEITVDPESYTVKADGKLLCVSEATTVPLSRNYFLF

One may read the IC50 as the point on the concentration scale where inhibition reaches its midpoint. As to `O=C(NN1C(=O)SCC1c1ccc(Cl)cc1Cl)c1cc2c(F)cc([N+](=O)[O-])cc2o1` (stereo not shown) [Compound 8, N-(4-(2,4-dichlorophenyl)-2-oxothiazolidin-3-yl)-4-fluoro-6-nitrobenzofuran-2-carboxamide], the IC50 worked out at 2900 ± 10 nM.
